In assay [1] the test system is E. coli 10243 (sensitive, untransformed). In words: Adenylate kinase release (cell lysis) assay with antibiotic and phage 10359, sensitive strain. Type of assay: cell-based, Escherichia coli. How it is done:
For example, in one embodiment, a sample of bacterial cells is divided into first and second samples. The first sample of bacterial cells is mixed with a solution containing ADP and a detergent in the presence of magnesium ions. This extracts the adenylate kinase from all the cells present in the sample, thus allowing the ATP generating reaction to occur. The reaction is allowed to proceed for the required time e.g. 5 minutes, after which bioluminescence reagent is added and the resulting light measured in a luminometer. An assay performed in this way determines the total amount of adenylate kinase in a sample, be it extracellular or intracellular.
The second sample is subjected to a similar assay but in the absence of detergent so that only extracellular adenylate kinase is measured. […]

Assay [2] relates to E. coli 10243 carrying plasmid encoding ampicillin resistance (pUC18). Briefly: Adenylate kinase release (cell lysis) assay with antibiotic and phage 10359, ampicillin-resistant strain. In kind it is cell-based, Escherichia coli. The following applies: log phase, 10^5 phage 10359 at T0, 50 μg/ml ampicillin at T5. How it is done: A plasmid encoding ampicillin resistance (pUC18) was introduced into a pure culture of E. coli 10243 in order to induce resistance without altering phage host specificity.
Log phase cultures of both resistant and sensitive strains of E. coli 10243 were infected with 10^5 phage 10359 at T0 and 50 μg/ml ampicillin at T5.

Structures are written as SMILES.

For `CC1(C)S[C@@H]2[C@H](NC(=O)[C@H](N)c3ccccc3)C(=O)N2[C@H]1C(=O)O` [ampicillin], in assay [1] (sensitive strain, log phase, 10^5 phage 10359 at T0, 50 μg/ml ampicillin at T5, time in min), the “Cell lysis due to ampicillin (adenylate kinase release)” value was “evident at T10 and significant at T20”. Also, the “Effect of the antibiotic on the resistant strain (adenylate kinase release)” value in assay [2] was “unaffected by the antibiotic”.

Consider `O=C(N[C@H](CO)[C@H](O)c1ccc([N+](=O)[O-])cc1)C(Cl)Cl` [chloramphenicol], for which the “Degree of phage mediated lysis in cultures containing the antibiotic” value in assay [1] (phage 10359 plus chloramphenicol 34 μg/ml versus phage only, 80 min) was “considerably less”. Further, the “Cell lysis with both bacteriophage and chloramphenicol compared with chloramphenicol alone” value in assay [1] (phage 10359 plus chloramphenicol 34 μg/ml, 80 min) was “Greater cell lysis”.

(Values after US6861230B1, “Antibiotic sensitivity testing” (priority 1998, dated 2005).)
